Assay results reported in article PMC9658513, “Discovery of Compounds That Selectively Repress the Amyloidogenic Processing of the Amyloid Precursor Protein: Design, Synthesis and Pharmacological Evaluation of Diphenylpyrazoles” (International Journal of Molecular Sciences, 2022).

Key:
Aβ1–42 peptide secretion = test: Aβ1–42 secretion in cell medium by ELISA; format: cell-based, human; settings: SY5Y-APP^WT cells, 24 h treatment, mean ± SD of at least three experiments in triplicate
Procedure, shortened: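 SY5Y-APP^WT cells (SH-SY5Y human neuroblastoma stably expressing human wild-type APP695) were treated with compounds for 24 h in supplemented DMEM at 37 °C. Secreted Aβ1–40 and Aβ1–42 were quantified in the collected, centrifuged conditioned medium by ELISA, in pg/mL.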

LC3 = test: Autophagic flux: LC3-I lipidation into LC3-II by Western blot; format: cell-based; settings: Homo sapiens, 24 h, compound at 3 µM, SY5Y-APP^wt cells, vs control
From the text: Previous work dedicated to compounds of family C [22] has underlined the effect of our compounds on autophagic flux and the lysosomal degradation pathways. More precisely, the role of the amino side chains and their number was highlighted. Therefore, we assessed whether the activity of compounds involved the modulation of lysosomal activities toward the accumulation of APP-CTFs and AICD. Thus, we studied the effect of a selection of compounds on the autophagic flux, more particularly, we evaluated the effect of compounds 24, 33, 34, 57, 65, 67, 70, and 71 on two markers associated with autophagy: p62 and LC3-I lipidation into LC3-II. To the previous selection of efficient compounds decreasing Aβ1–x production and increasing CTFα and AICD, we added compound 65 with no cytotoxicity at 100 µM. As a comparison, we also selected compound 57 with a hydroxymethyl substituent as a control. In addition to CQ, bafilomycin A, a well-known inhibitor of autophagic flux, was used as a control. Treatment with compounds 67 and 71 induced an increase in p62 expression by 2.5 and 4-fold, respectively, compared to the control condition (Figure 3). […] An increase in the two markers was also observed with compound 57, but to a smaller extent (1.7-fold for p62 and 2-fold for LC3-I/LC3-II).
(§1) The human neuroblastoma cell line SY5Y-APP^695WT was maintained in Dulbecco’s modified Eagle medium (DMEM, high glucose, pyruvate—GIBCO, Life Technologies, Carlsbad, CA, USA) supplemented with 10% fetal bovine serum, 2 mM L-glutamine, 1 mM non-essential amino acids and penicillin/streptomycin (GIBCO, Life Technologies, Carlsbad, CA, USA) at 37 °C in a 5% CO2 humidified incubator [36]. For compound treatment, a 10 mM stock solution was diluted in freshly supplemented DMEM medium to obtain the precise final concentration of the drug. Cells were plated at a density of 5 × 10^5 cells per well into 12-well plates and cultured with 1 mL supplemented DMEM cell medium for 24 h before compound exposure. The following day, the cell medium was replaced with fresh medium containing the compounds diluted at the indicated concentrations. Cells were treated for 24 h. At the end of the treatments, the cell medium was collected and kept at −80 °C until use, cells were rinsed once with PBS and extracted in 100 µL of Laemmli buffer (10 mM Tris, 20% glycerol, and 2% sodium dodecyl sulfate) using a cell-scraper. The cell lysate was further sonicated (30 pulses of 0.5 s, 60 Hz) for 5 min. Total protein concentration was determined using the Pierce BCA Protein Assay Kit (Thermo Scientific, Waltham, MA, USA) according to the manufacturer’s instructions. Samples were stored at −80 °C until analysis.
Cell protein lysates were prepared for Western blot analysis by diluting the sample with 1 volume of NuPAGE® lithium dodecyl sulfate (LDS) 2X sample buffer supplemented with 20% NuPAGE® sample reducing agents (Invitrogen). Samples were heated for 10 min at 100 °C. Ten µg of total proteins per well were loaded onto precast 4–12% Criterion XT Bis-Tris polyacrylamide gels (Bio-Rad) and electrophoresis was achieved after applying a tension of 150 V for 90 min using a Criterion electrophoresis cell with the NuPAGE® MOPS SDS running buffer (1X). Proteins were transferred to a nitrocellulose membrane of […] pore size (G&E Healthcare, Madison, WI, USA) using the Criterion blotting system and applying a tension of 100 V for 45 min. To resolve proteins of low molecular weights such as carboxy-terminal fragments of APP, 12% Criterion XT Bis-Tris polyacrylamide gels (Bio-Rad, Hercules, CA, USA) were used, and electrophoresis was performed for 70 min at 150 V in a NuPAGE® MES SDS running buffer (1X). Proteins were transferred to a nitrocellulose membrane of 0.2 µm pore size (G&E Healthcare, Madison, WI, USA) at 100 V for 40 min. Molecular weight calibration was achieved using molecular weight markers (Novex and Magic Marks, Life Technologies, Carlsbad, CA, USA). […]

sAPPβ secretion = sAPPβ secretion (MSD sAPPα/sAPPβ Multiplex Kit); format: cell-based, human; settings: SY5Y cells, mean ± SD of at least three experiments in triplicate
Method: A selection of compounds with several selected activities was performed including sAPPα and sAPPβ, which were further explored. […] The decrease in Aβ could result from a decrease in either β- or γ-secretase cleavage or an increase in the α-secretase cleavage of APP. Thus, medium concentrations of sAPPβ and sAPPα, which are the β- and α-secretase extramembrane shed APP fragments, were determined after cell drug treatments.
as §1
Conditioned media of SY5Y-APP^695WT collected at the end of treatments were centrifuged at 1000× g for 5 min to eliminate cell debris.
Aβ1–40/Aβ1–42 peptides, Aβx–38/Aβx–40/Aβx–42, and sAPPα/sAPPβ concentrations in pg/mL were determined, respectively, using amyloid-beta 40 and 42 Human ELISA Kits (Invitrogen), the V-PLEX Plus Aβ Peptide Panel 1 (4G8) Kit (Meso Scale Diagnostics, MSD R©, Rockville, MD, USA), and the sAPPα/sAPPβ Multiplex Kit (Meso Scale Diagnostics, MSD R©, Rockville, MD, USA) according to the manufacturer’s instructions.

SY5Y-APP^695WT cells = test: in vitro; format: cell-based, human
Procedure, shortened: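 Cells seeded at 3 × 10^4 per well, attached 24 h, then exposed to drug for 72 h in DMEM with 10% SVF. Viability by MTS colorimetric assay, absorbance at 490 nm.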

Row | Compound | IC50 (Aβ1–42 peptide secretion; Homo sapiens) [nM] | IC50 (sAPPβ secretion; Homo sapiens) [µM] | IC50 (Aβ1–42 peptide secretion) [nM] | IC50 (sAPPβ secretion) [µM] | fold induction at 3 µM (LC3) | CC50 (SY5Y-APP^695WT cells) [µM] | Cytotox. CC50 (SY5Y-APP^695WT cells) [µM]
1 | CN(C)CCCc1ccc(-c2nn(-c3ccc(CN(C)C)cc3)cc2CN(C)C)cc1 [Compound 24, 3-[4-[4-(Dimethylaminomethyl)-1-[4-(dimethylaminomethyl)phenyl] Pyrazol-3-yl]phenyl]-N,N-dimethyl-propan-1-amine] | 2500 ± 200 |  |  |  | 3.3 |  | 
2 | Cc1cn(-c2cccc(CN(C)C)c2)nc1-c1cccc(CN(C)CCCN(C)C)c1 [Compound 70, N′-[[3-[1-[3-(Dimethylaminomethyl)phenyl]-4-methyl-pyrazol-3-yl]phenyl] Methyl]-N,N,N′-trimethyl-propane-1,3-diamine] | 2100 ± 100 |  |  |  | 6 |  | 
3 | Cc1cn(-c2cccc(CN3CCN(C)CC3)c2)nc1-c1cccc(CN(C)CCCN(C)C)c1 [Compound 71, N,N,N′-Trimethyl-N′-[[3-[4-methyl-1-[3-[(4-methylpiperazin-1-yl)methyl]phenyl]pyrazol-3-yl]phenyl]methyl]propane-1,3-diamine] | 1700 ± 100 | 4 ± 0.4 |  |  | 6.5 |  | 
4 | N′-[[4-[4-[3-(Dimethylamino)propyl]-3-[4-[3-(dimethylamino)propyl]phenyl] Pyrazol-1-yl]phenyl]methyl]-N,N,N′-trimethyl-propane-1,3-diamine [Compound 33] |  |  | 9700 ± 1200 | 6.8 ± 0.3 |  | > 100 | 100

Continued by falling IC50 (Aβ1–42 peptide secretion; Homo sapiens), values first:

Row | IC50 (Aβ1–42 peptide secretion; Homo sapiens) [nM] | IC50 (sAPPβ secretion; Homo sapiens) [µM] | IC50 (Aβ1–42 peptide secretion) [nM] | IC50 (sAPPβ secretion) [µM] | Compound | fold induction at 3 µM (LC3) | CC50 (SY5Y-APP^695WT cells) [µM] | Cytotox. CC50 (SY5Y-APP^695WT cells) [µM]
5 | 3500 ± 800 |  |  |  | Cc1cn(-c2cccc(CO)c2)nc1-c1ccc(CN(C)CCCN(C)C)cc1 [Compound 57, (3-{3-[4-({[3-(Dimethylamino)propyl](methyl)amino}methyl)phenyl]-4-methyl-1H-pyrazol-1-yl}phenyl)methanol] | 2 |  | 
6 | 2100 ± 400 |  |  |  | Cc1cn(-c2cccc(CN3CCN(C)CC3)c2)nc1-c1cccc(CN(C)C)c1 [Compound 65, N,N-dimethyl-1-[3-[4-methyl-1-[3-[(4-methylpiperazin-1-yl)methyl]phenyl]pyrazol-3-yl]phenyl]methanamine] | 2.63 |  | 
7 | 2100 ± 500 | 3.2 ± 1.4 |  |  | Cc1cn(-c2cccc(CN(C)C)c2)nc1-c1ccc(CN(C)CCCN(C)C)cc1 [Compound 67, {[4-(1-{3-[(Dimethylamino)methyl]phenyl}-4-methyl-1H-pyrazol-3-yl)phenyl]methyl} [3-(Dimethylamino)propyl]methylamine] | 5.2 |  | 
